Read-outs that look alike come from different tables or passages of the source.
Columns and labels:
[1] = test system: α-isomaltosylglucosaccharide-forming enzyme; assay: Influence of metal ions on the activity of α-isomaltosylglucosaccharide-forming enzyme (Strain N75); assay type: biochemical, Bacillus globisporus N75; conditions: for Relative activity (%): 1 mM of each metal-ion; for influence on the enzyme activity, in words: 1 mM
Procedure: (§1) One unit activity of the α-isomaltosylglucosaccharide-forming enzyme is defined as the enzyme amount that forms one micromole of maltose per minute under the above enzymatic reaction conditions. Throughout the specification, the enzymatic activity of the α-isomaltosylglucosaccharide-forming enzyme means the unit(s) assayed as above.
(§2) The influence of metal ions on the activity of α-isomaltosylglucosaccharide-forming enzyme was examined in the presence of 1 mM of each metal-ion according to the assay for the enzyme activity.

[2] = test system: α-isomaltosyl-transferring enzyme; assay: Influence of metal ions on the activity of α-isomaltosyl-transferring enzyme (Strain S1); assay type: biochemical, Arthrobacter ramosus S1; conditions: for Relative activity (%): 1 mM of each metal-ion; for influence on the enzyme activity, in words: 1 mM
Procedure: (§3) The α-isomaltosyl-transferring enzyme was assayed for enzymatic activity by dissolving panose in 100 mM acetate buffer (pH 6.0) to give a concentration of 2% (w/v) for a substrate solution, adding a 0.5 ml of an enzyme solution to 0.5 ml of the substrate solution, enzymatically reacting the mixture solution at 35° C. for 30 min, suspending the reaction mixture by boiling for 10 min, and quantifying glucose, among the cyclotetrasaccharide and glucose formed in the reaction mixture, by the glucose oxidase method. One unit activity of the α-isomaltosyl-transferring enzyme is defined as the enzyme amount that forms one micromole of glucose per minute under the above enzymatic reaction conditions. Throughout the specification, the enzymatic activity of the α-isomaltosyl-transferring enzyme means the unit(s) assayed as above.
(§4) The influence of metal ions on the activity of α-isomaltosyl-transferring enzyme was examined in the presence of 1 mM of each metal-ion according to the assay for the enzyme activity.

[3] = test system: α-isomaltosylglucosaccharide-forming enzyme; assay: Influence of metal ions on the activity of α-isomaltosylglucosaccharide-forming enzyme (Strain A19); assay type: biochemical, Arthrobacter globiformis A19; conditions: for Relative activity (%): 1 mM of each metal-ion; for influence on the enzyme activity, in words: 1 mM
[4] = test system: α-isomaltosylglucosaccharide-forming enzyme; assay: Influence of metal ions on the activity of α-isomaltosylglucosaccharide-forming enzyme (Strain C11); assay type: biochemical, Bacillus globisporus C11; conditions: for Relative activity (%): 1 mM of each metal-ion; for influence on the enzyme activity, in words: 1 mM
Procedure: as §1
The influence of metal ions on the activity of α-isomaltosylglucosaccharide forming enzyme was examined in the presence of 1 mM of each metal-ion according to the assay for the enzyme activity.

[5] = test system: α-isomaltosyl-transferring enzyme; assay: Influence of metal ions on the activity of α-isomaltosyl-transferring enzyme (Strain C9); assay type: biochemical, Bacillus globisporus C9; conditions: for Relative activity (%): 1 mM of each metal-ion; for influence on the enzyme activity, in words: 1 mM
Procedure: as §3, with “above. […]” for “above.”

[6] = test system: α-isomaltosylglucosaccharide-forming enzyme; assay: Influence of metal ions on the activity of α-isomaltosylglucosaccharide-forming enzyme (Strain C9); assay type: biochemical, Bacillus globisporus C9; conditions: for Relative activity (%): 1 mM of each metal-ion
Procedure: as §1, §2

[7] = test system: α-isomaltosyl-transferring enzyme; assay type: biochemical, Bacillus globisporus C11
Procedure: as §3, §4

[8] = test system: α-isomaltosyl-transferring enzyme; assay: Influence of metal ions on the activity of α-isomaltosyl-transferring enzyme (Strain N75); assay type: biochemical, Bacillus globisporus N75; conditions: for Relative activity (%): 1 mM of each metal-ion; for influence on the enzyme activity, in words: 1 mM
Procedure: as §3, §4

Row | Structure (SMILES) | Relative activity (%) [1] | Relative activity (%) [2] | Relative activity (%) [3] | Relative activity (%) [4] | Relative activity (%) [5] | Relative activity (%) [6] | Relative activity (%) ([7]; 1 mM of each metal-ion) | Relative activity (%) [8] | influence on the enzyme activity, in words [1] | influence on the enzyme activity, in words [2] | influence on the enzyme activity, in words [3] | influence on the enzyme activity, in words [4] | influence on the enzyme activity, in words [5] | influence on the enzyme activity, in words [8] | Relative activity (%) [7] | influence on the enzyme activity, in words [7] | influence on the enzyme activity, in words ([6]; 1 mM) | influence on the enzyme activity, in words ([7]; 1 mM)
1 | [Co+2] [Co^2+] | 93% | 91% | 93% | 96% | 103% | 100% | 89% | 92% | – | – | – | – | – | – | – | – | – | –
2 | [Cu+2] [Cu^2+] | 7% | 2% | 0% | 23% | 57% | 15% | 56% | 15% | greatly inhibited | also inhibited | greatly inhibited | greatly inhibited | also inhibited | also inhibited | – | – | – | –
3 | O=C(O)CN(CCN(CC(=O)O)CC(=O)O)CC(=O)O [EDTA, ethylenediaminetetraacetic acid, reference compound] | 35% | 91% | 2% | 24% | 104% | 20% | – | 92% | greatly inhibited | – | greatly inhibited | greatly inhibited | not inhibited | not inhibited | 98% | not inhibited | – | –
4 | [Hg+2] [Hg^2+] | 1% | 0.1% | 0% | 4% | 1% | 4% | 2% | 0.5% | greatly inhibited | greatly inhibited | greatly inhibited | greatly inhibited | greatly inhibited | greatly inhibited | – | – | greatly inhibited | greatly inhibited
5 | [Pb+2] [Pb^2+] | 86% | 85% | 43% | 101% | 89% | 103% | 74% | 69% | – | – | – | – | – | – | – | – | – | –
6 | [Sr+2] [Sr^2+] | 85% | 101% | 102% | 83% | 101% | 80% | 93% | 91% | – | – | – | also inhibited | – | – | – | – | – | –
7 | [Zn+2] [Zn^2+] | 82% | 78% | 56% | 91% | 88% | 92% | 83% | 75% | – | – | – | – | – | – | – | – | – | –

Reference: patent US7811797B2, “α-isomaltosylglucosaccharide-forming enzyme, process and uses of the same” (Kabushiki Kaisha Hayashibara Seibutsu Kagaku Kenkyujo, priority 2000, dated 2010)
